Reference: patent EP4692114A1, “CALCITONIN ANALOGUE, AND DERIVATIVE THEREOF AND USE THEREOF” (Hangzhou Sciwind Biosciences Co., Ltd., priority 2023, dated 2024)
*1 amine or outer side, *2 acyl side, *3 side chain or, on linkers, in order; H or OH if unused. Where a SMILES comes first, the peptide text is derived from it. The star is where a group is joined. C22 diacid = O=C(O)CCCCCCCCCCCCCCCCCCCCC(=O)*; C20 diacid = O=C(O)CCCCCCCCCCCCCCCCCCC(=O)*; C18 diacid = O=C(O)CCCCCCCCCCCCCCCCC(=O)*; γGlu = O=C(O)[C@H](CCC(=O)[*:2])N[*:1]; βAsp = O=C(O)[C@H](CC(=O)[*:2])N[*:1]; AEEA = NCCOCCOCC(=O)O

Key:
[1] = Heat accelerated stability assay under a neutral condition; assay type: physicochemical; details: pH about 7.4, 40°C; for Changes in characteristics or properties, 0d / Changes in characteristics or properties, 7d: 1 mg/mL, phosphate; for Concentration change (7d-0d)/%: Day 7 vs Day 0, reversed phase chromatography; for Purity Change% (7d-0d) / Purity Change% (26d-0d): purity from reversed phase chromatography-214 nm; for Purity Change% (7d-0d): Day 7 vs Day 0; for Purity Change% (26d-0d): Day 26 vs Day 0
Method: The lyophilized powder (1 mg/mL) of calcitonin analogues or derivatives prepared in accordance with the method of Example 1 were mixed with sodium dihydrogen phosphate (1.42 mg/mL) and dissolved in ultrapure water in the indicated mass-volume ratios. After adjusting pH to about 7.4 with hydrochloric acid/sodium hydroxide, the solution was filtered into a sterilized vial in a clean bench using a 0.22 µm sterile filter. The vial was then capped and placed into the stability test chamber at 40°C. Detections were made on Days 7 (7d) and 26 (26d), and during the assay, changes in the characteristics and properties of the polypeptides were observed and recorded. The sample was then centrifuged for 3 min at 10000 rpm at 4°C, and the supernatant was transferred to a liquid phase sample vial for detecting the concentration and purity of the polypeptides using liquid phase chromatography described as below, wherein the concentration of the polypeptide = peak area/injection volume/extinction coefficient/60×flow rate, and the purity of the polypeptide = target peak area/total peak area× 100%.
Conditions of the reversed phase chromatography Flow rate: 1.0 ml/min; Autosampler temperature: 15°C; Column temperature: 25°C; Detection wavelengths: 280 nm and 214 nm; Mobile phase A: 100% H2O+0.05% TFA; Mobile phase B: 100% ACN; and Gradient of elution listed in Table 4: Table 4. Listing of the gradient of elution in the liquid phase chromatography
Results were shown below in Tables 5, 6, and 7. A difference of more than 5% in content as compared with the initial value was typically assumed (for example, as prescribed by the Chinese Pharmacopeia (2020 Edition)) to be a significant change. Within a reasonable margin of error, a decrease of less than 1% from the initial value to the detected content is denoted as "no change" below. Table 5. Changes in characteristics or properties in the heat accelerated stability assay

[2] = molecular target: T1, human amylin receptors (Homo sapiens, UniProt O60896+P30988); test: Luciferase assay of amylin (amylin receptor/CRE-luc cell line); assay type: cell-based; details: stably transfected amylin receptor/CRE-luc CHO cells (CHO-K1/Gal5/AMY3), 24 hours incubation, luciferase readout;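 note: agonist potency from luminescence of cAMP response element-driven luciferase, EC50 derived from a standard curve of signal versus compound concentration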
T1 sequence (P30988 25-474): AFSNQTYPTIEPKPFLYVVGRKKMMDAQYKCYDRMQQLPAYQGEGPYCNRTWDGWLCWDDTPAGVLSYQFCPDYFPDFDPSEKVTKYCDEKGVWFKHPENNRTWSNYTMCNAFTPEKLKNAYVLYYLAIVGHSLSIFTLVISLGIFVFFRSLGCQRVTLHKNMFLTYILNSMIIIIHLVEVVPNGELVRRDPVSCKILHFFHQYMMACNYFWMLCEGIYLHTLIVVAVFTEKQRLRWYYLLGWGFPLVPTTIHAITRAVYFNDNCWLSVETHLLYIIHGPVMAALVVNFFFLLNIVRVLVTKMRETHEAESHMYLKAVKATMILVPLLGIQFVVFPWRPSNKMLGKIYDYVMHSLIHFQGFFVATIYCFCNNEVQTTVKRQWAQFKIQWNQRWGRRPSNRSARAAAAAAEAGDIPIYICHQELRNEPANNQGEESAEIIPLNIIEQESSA
T1 sequence (O60896 24-148 partner): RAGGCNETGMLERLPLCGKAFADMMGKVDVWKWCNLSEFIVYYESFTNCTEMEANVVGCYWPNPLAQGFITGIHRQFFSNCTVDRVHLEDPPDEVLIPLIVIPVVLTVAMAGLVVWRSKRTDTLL
Excerpt: The objective of this assay is to test the activity or potency of calcitonin analogues or derivatives on human amylin receptors in vitro using a luciferase assay.
Using the standard protocol, CHO-K1/Gal5/AMY3 cells (purchased from GenScript, with the calcitonin receptor and the receptor activity modifying peptide (RAMP) constructed already) were transfected with a plasmid containing a luciferase expression cassette driven by multiple copies of cAMP response elements (CREs). The cells were cultured in an F12 medium containing 200 ug/mL Zeocin, 2 ug/mL puromycin, 100 ug/mL hygromycin, and 400 ug/mL G418 to afford a stably transfected amylin receptor/CRE-luc cell line.
To each well of a white 96-well plate was added 50 µL of the tested sample solution at a respective concentration.
The stably transfected amylin receptor/CRE-luc CHO cells were resuspended in the growth medium at a certain density, and 50 µL of the cell suspension was added at a density of about 20000 cells per well to the white 96-well plate containing the tested sample solution. After incubation of 24 hours at 37°C and 5% CO2, 100 µL of a Luciferase substrate was added to each well, incubated for 3 minutes, and finally was tested for luminescence on SpectraMax L (Molecular Devices) with the software SoftMax Pro 7.0.3 GxP. A standard curve was plotted using the fluorescent intensities for calculation of EC50.

Row | Changes in characteristics or properties, 0d [1] | Changes in characteristics or properties, 7d [1] | Purity Change% (26d-0d) [1] | EC50 [2] | Structure (SMILES) | Concentration change (7d-0d)/% [1] | Purity Change% (7d-0d) [1]
1 | Clear | Clear | -3.76% | 0.016 nM | CC(C)C[C@H](NC(=O)[C@H](CCCNC(=N)N)NC(=O)CNC(=O)[C@H](CC(C)C)NC(=O)[C@@H](NC(=O)[C@H](C)NC(=O)[C@@H](NC(=O)[C@H](CO)NC(=O)[C@H](CC(C)C)NC(=O)[C@H](CCC(N)=O)NC(=O)[C@H](CO)NC(=O)[C@H](C)NC(=O)[C@H](CC(=O)O)NC(=O)CCCCCCCCCCCCCCCCC(=O)O)[C@@H](C)O)C(C)C)C(=O)N[C@@H](CO)C(=O)N[C@@H](CC(=O)O)C(=O)N[C@@H](CCC(=O)O)C(=O)N[C@@H](CC(C)C)C(=O)N[C@@H](Cc1c[nH]cn1)C(=O)N[C@@H](CCCNC(=N)N)C(=O)N[C@@H](CC(C)C)C(=O)N[C@@H](CCC(N)=O)C(=O)N[C@@H](CC(=O)O)C(=O)N[C@@H](Cc1ccc(O)cc1)C(=O)N1CCC[C@H]1C(=O)N[C@@H](CCCNC(=N)N)C(=O)N[C@H](C(=O)N[C@@H](CC(=O)O)C(=O)N[C@H](C(=O)NCC(=O)N[C@@H](CO)C(=O)NCC(=O)N[C@@H](CO)C(=O)N1CCC[C@H]1C(N)=O)C(C)C)[C@@H](C)O [M44] ({C18 diacid}-DASQLSTAVLGRLSDELHRLQDYPRTDVGSGSP-NH2) | -2.285% | -1.15%
2 |  |  |  | 0.017 nM | CC(C)C[C@H](NC(=O)[C@H](CCCNC(=N)N)NC(=O)CNC(=O)[C@H](CC(C)C)NC(=O)[C@@H](NC(=O)[C@H](C)NC(=O)[C@@H](NC(=O)[C@H](CO)NC(=O)[C@H](CC(C)C)NC(=O)[C@H](CCC(N)=O)NC(=O)[C@H](CO)NC(=O)[C@H](C)NC(=O)COCCOCCNC(=O)COCCOCCNC(=O)COCCOCCNC(=O)COCCOCCNC(=O)CC[C@H](NC(=O)CCCCCCCCCCCCCCCCCCCCC(=O)O)C(=O)O)[C@@H](C)O)C(C)C)C(=O)N[C@@H](CO)C(=O)N[C@@H](CCC(=O)O)C(=O)N[C@@H](CCC(=O)O)C(=O)N[C@@H](CC(C)C)C(=O)N[C@@H](Cc1c[nH]cn1)C(=O)N[C@@H](CCCNC(=N)N)C(=O)N[C@@H](CC(C)C)C(=O)N[C@@H](CCC(N)=O)C(=O)N[C@@H](CC(=O)O)C(=O)N[C@@H](Cc1ccc(O)cc1)C(=O)N1CCC[C@H]1C(=O)N[C@@H](CCCNC(=N)N)C(=O)N[C@H](C(=O)N[C@@H](CC(=O)O)C(=O)N[C@H](C(=O)NCC(=O)N[C@@H](CO)C(=O)NCC(=O)N[C@@H](CO)C(=O)N1CCC[C@H]1C(N)=O)C(C)C)[C@@H](C)O [M67] ({C22 diacid-γGlu-AEEA-AEEA-AEEA-AEEA}-ASQLSTAVLGRLSEELHRLQDYPRTDVGSGSP-NH2) |  | 

Further lines, the compound ahead of its results:

Row | Structure (SMILES) | Changes in characteristics or properties, 0d [1] | Changes in characteristics or properties, 7d [1] | Purity Change% (26d-0d) [1] | EC50 [2] | Concentration change (7d-0d)/% [1] | Purity Change% (7d-0d) [1]
3 | CC(C)C[C@H](NC(=O)[C@H](CCCNC(=N)N)NC(=O)CNC(=O)[C@H](CC(C)C)NC(=O)[C@@H](NC(=O)[C@H](C)NC(=O)[C@@H](NC(=O)[C@H](CO)NC(=O)[C@H](CC(C)C)NC(=O)[C@H](CCC(N)=O)NC(=O)[C@H](CO)NC(=O)[C@H](C)NC(=O)CC[C@H](NC(=O)CCCCCCCCCCCCCCCCC(=O)O)C(=O)O)[C@@H](C)O)C(C)C)C(=O)N[C@@H](CO)C(=O)N[C@@H](CC(=O)O)C(=O)N[C@@H](CCC(=O)O)C(=O)N[C@@H](CC(C)C)C(=O)N[C@@H](Cc1c[nH]cn1)C(=O)N[C@@H](CCCNC(=N)N)C(=O)N[C@@H](CC(C)C)C(=O)N[C@@H](CCC(N)=O)C(=O)N[C@@H](CC(=O)O)C(=O)N[C@@H](Cc1ccc(O)cc1)C(=O)N1CCC[C@H]1C(=O)N[C@@H](CCCNC(=N)N)C(=O)N[C@H](C(=O)N[C@@H](CC(=O)O)C(=O)N[C@H](C(=O)NCC(=O)N[C@@H](CO)C(=O)NCC(=O)N[C@@H](CO)C(=O)N1CCC[C@H]1C(N)=O)C(C)C)[C@@H](C)O [M39] ({C18 diacid-γGlu}-ASQLSTAVLGRLSDELHRLQDYPRTDVGSGSP-NH2) | Clear | Clear | -3.3% | 0.016 nM | No change (a decrease of less than 1% from the initial value to the detected content is denoted as "no change") | No change (a decrease of less than 1% from the initial value to the detected content is denoted as "no change")
4 | CC(C)C[C@H](NC(=O)[C@H](CCCNC(=N)N)NC(=O)CNC(=O)[C@H](CC(C)C)NC(=O)[C@@H](NC(=O)[C@H](C)NC(=O)[C@@H](NC(=O)[C@H](CO)NC(=O)[C@H](CC(C)C)NC(=O)[C@H](CCC(N)=O)NC(=O)[C@H](CO)NC(=O)[C@H](C)NC(=O)[C@H](CCC(=O)O)NC(=O)CCCCCCCCCCCCCCCCC(=O)O)[C@@H](C)O)C(C)C)C(=O)N[C@@H](CO)C(=O)N[C@@H](CC(=O)O)C(=O)N[C@@H](CCC(=O)O)C(=O)N[C@@H](CC(C)C)C(=O)N[C@@H](Cc1c[nH]cn1)C(=O)N[C@@H](CCCNC(=N)N)C(=O)N[C@@H](CC(C)C)C(=O)N[C@@H](CCC(N)=O)C(=O)N[C@@H](CC(=O)O)C(=O)N[C@@H](Cc1ccc(O)cc1)C(=O)N1CCC[C@H]1C(=O)N[C@@H](CCCNC(=N)N)C(=O)N[C@H](C(=O)N[C@@H](CC(=O)O)C(=O)N[C@H](C(=O)NCC(=O)N[C@@H](CO)C(=O)NCC(=O)N[C@@H](CO)C(=O)N1CCC[C@H]1C(N)=O)C(C)C)[C@@H](C)O [M42] ({C18 diacid}-EASQLSTAVLGRLSDELHRLQDYPRTDVGSGSP-NH2) | Clear | Clear | -2.93% | 0.016 nM | -3.344% | No change (a decrease of less than 1% from the initial value to the detected content is denoted as "no change")
5 | CC(C)C[C@H](NC(=O)[C@H](CCCNC(=N)N)NC(=O)CNC(=O)[C@H](CC(C)C)NC(=O)[C@@H](NC(=O)[C@H](C)NC(=O)[C@@H](NC(=O)[C@H](CO)NC(=O)[C@H](CC(C)C)NC(=O)[C@H](CCC(N)=O)NC(=O)[C@H](CO)NC(=O)[C@H](C)NC(=O)C[C@H](NC(=O)CCCCCCCCCCCCCCCCCCC(=O)O)C(=O)O)[C@@H](C)O)C(C)C)C(=O)N[C@@H](CO)C(=O)N[C@@H](CC(=O)O)C(=O)N[C@@H](CCC(=O)O)C(=O)N[C@@H](CC(C)C)C(=O)N[C@@H](Cc1c[nH]cn1)C(=O)N[C@@H](CCCNC(=N)N)C(=O)N[C@@H](CC(C)C)C(=O)N[C@@H](CCC(N)=O)C(=O)N[C@@H](CC(=O)O)C(=O)N[C@@H](Cc1ccc(O)cc1)C(=O)N1CCC[C@H]1C(=O)N[C@@H](CCCNC(=N)N)C(=O)N[C@H](C(=O)N[C@@H](CC(=O)O)C(=O)N[C@H](C(=O)NCC(=O)N[C@@H](CO)C(=O)NCC(=O)N[C@@H](CO)C(=O)N1CCC[C@H]1C(N)=O)C(C)C)[C@@H](C)O [M43] ({C20 diacid-βAsp}-ASQLSTAVLGRLSDELHRLQDYPRTDVGSGSP-NH2) | Clear | Clear | -1.96% | 0.017 nM | No change (a decrease of less than 1% from the initial value to the detected content is denoted as "no change") | No change (a decrease of less than 1% from the initial value to the detected content is denoted as "no change")
